# Source: US20230321043A1, “COMPOUNDS HAVING PSEUDOMONAS ANTI-BIOFILM PROPERTIES” (Københavns Universitet, priority 2020, published 2023)
# Columns and labels:
# [1] = tested on: P. aeruginosa wspF mutant; experiment: Congo Red agar plate colony phenotype; type: cell-based, Pseudomonas aeruginosa; settings: CR plates supplemented with 100 μM; dark red without compound
# Text: The inventors employed mutational analysis with the aim of identifying a putative target of H6-335-P1. The compound Congo Red (CR) binds to exopolymers whose production is positively regulated by c-di-GMP in P. aeruginosa (Friedman, L., and R. Kolter. 2003.
# Genes involved in matrix formation in Pseudomonas aeruginosa PA14 biofilms. Molecular Microbiology 51:675-690).
# [2] = tested on: P. aeruginosa ΔwspFΔpelΔpsl; experiment: growth (OD600) of treated cultures; type: cell-based, Pseudomonas aeruginosa; settings: 0 to 100 μM, 24 hours, FIG. 3B
# Method: Specifically, a 20 h old culture of P. aeruginosa ΔwspF,Δpsl,Δpel (Rybtke et al 2012) was diluted 100 fold into 25 mL aliquots of ABtrace media supplemented with 0.5% Cas amino acids, 0.2% glucose, 60 μg/mL of gentamicin, 1 μM FeCl3, 0.05% DMSO and either 100 μM H6-335-P1, 100 μM H6-335 or no compound as reference control. Acting as a positive control for low total cellular c-di-GMP content, a 20 hour old culture of strain P. aeruginosa ΔwspF,Δpsl,Δpel carrying plasmid pYhj::Gm (encoding a constitutively expressed YhjH phosphodiesterase) was also diluted 100 fold into 25 mL of ABtrace medium supplemented with 0.5% Cas amino acids, 0.2% glucose, 60 μg/mL of gentamicin, 1 μM FeCl3 and 0.05% DMSO. The 4 cultures were placed on a rotary shaker and following 8 hours of growth at 37° C. and 200 RPM culture samples for c-di-GMP extraction and protein quantification was collected from each of the 4 different cultures. C-di-GMP extracts were prepared and subsequently quantified by HPLC coupled tandem-MS analysis as previously described (Groizeleau et al., 2016), while protein quantification was carried out using the Pierce 660 nm Protein Assay (Thermo Scientific Cat. No 22660) according to the manufacturer's protocol. […]
# Acinetobacter baumanii = experiment: biofilm formation / dispersal, host range; type: cell-based; settings: data not shown
# Text: (§1) To determine the host range of H6-335-P1, the inventors conducted a Blast search for analogs of the P. aeruginosa BifA phosphodiesterase protein encoded by gene PA4367 (bifA).
# Enterobacter cloacae = experiment: biofilm formation / dispersal, host range; type: cell-based; settings: data not shown
# Text: as §1
# [3] = tested on: Stenotrophomonas maltophilia; experiment: biofilm formation / dispersal, host range; type: cell-based; settings: data not shown
# Text: as §1
# Burkholderia cenocepacia = experiment: biofilm formation / dispersal, host range; type: cell-based; settings: data not shown
# Text: as §1
# [4] = solubility in aqueous media; settings: aqueous media
# wt P. aeruginosa biofilm = experiment: biofilm inhibition, microtiter tray, crystal violet staining; type: cell-based, Pseudomonas aeruginosa; settings: 8 hours
# Method: Briefly, using a microtiter tray format, a 20 hour old culture of wt P. aeruginosa was diluted 1000 fold into 100 μL ABtrace media aliquots supplemented with 0.2% glucose, 0.5% Cas amino acids, 1 μM FeCl3, 0.2% DMSO and varying concentrations (100 μM, 50 μM, 25 μM, 12μM, 6 μM or 0 μM) of either H6-335-P1, H6-335, H6-335-SAR compound 26 or H6-335-SAR compound 25. The resulting microtiter trays were sealed with an air permeable lid, and biofilm cultures were grown on a rotary shaker at 37° C. and 160 RPM for 8 hours. After this, culture-supernatants were discarded and the remaining biomass was stained with crystal violet (Groizeleau et al., 2016). Finally, the amount of Crystal violet bound to the biofilm present in each well was plotted as a function of H6-335-P1, H6-335, H6-335-SAR compound 26 and H6-335-SAR compound 25 in the following concentrations: 100 μM, 50 μM, 25 μM, 12 μM, 6 μM or 0 μM (FIG. 4A). Means and standard deviations (bars) in FIG. 4A represents 4 biological replicates (n=4).
# Enterococcus facieum = experiment: biofilm formation / dispersal, host range; type: cell-based; settings: data not shown
# [5] = tested on: PA01(wspF)::araC-PBAD-bifA+; experiment: biofilm formation with arabinose inducible bifA expression; type: cell-based, Pseudomonas aeruginosa; settings: 6 to 100 μM with 0.05% or 0.2% arabinose, 18 hours, FIG. 6C
# Method: Using a 96 well microtiter platform, overnight cultures of the strains were diluted 200 fold into 100 uL ABTrace media aliquots (Pamp and Tolker-Nielsen, 2007) supplemented with 0.2% glucose, 0.5% casa amino acids, 1 μM FeCl3, 1% DMSO and varying concentrations of arabinose and H6-335-P1.
# The resulting microtiter plates were sealed with air permeable lids and biofilm cultures were grown at 37° C. on a rotary shaker (280 RPM) for 18 hours, after which the culture supernatants were discarded and biofilm present in the wells were quantified by crystal violet staining (Groizeleau et al., 2016).
# Finally, biofilm prevailing following treatment with varying concentrations of arabinose and H6-335-P1 were plotted. The amounts of supplemented arabinose (0% A, 0.05% A or 0.2% A) and H6-335-P1 (100 μM, 50 μM, 25 μM, 12 μM, 6 μM or 0 μM) are indicated below the X-axis of FIG. 6C. Numbers above the bars in FIG. 6 represents the crystal violet measurements.
structure (smiles),measurement,setting,value
"N=C1NN=C(N)/C1=N/Nc1ccccc1F [H6-335-P1, 4-[(2-fluorophenyl) hydrazinylidene]pyrazole-3,5-diamine]",colony colour on Congo Red plates,[1],white colonies
same,effect on growth (OD600),[2],does not inhibit growth
same,biofilm formation of Acinetobacter baumanii,Acinetobacter baumanii,failed to reduce biofilm formation
same,biofilm formation of Enterobacter cloacae,Enterobacter cloacae,failed to reduce biofilm formation
same,biofilm formation of Stenotrophomonas maltophilia,[3],failed to reduce biofilm formation
same,biofilm formation of Burkholderia cenocepacia,Burkholderia cenocepacia,failed to reduce biofilm formation
same,solubility,[4],< 2 µM
same,reduction of biofilm formation,"wt P. aeruginosa biofilm; 100 μM, compared to untreated (DMSO control)",98%
same,"biofilm inhibition (dose-response, words)","wt P. aeruginosa biofilm; 6 to 100 μM, FIG. 4A",distinct concentration dependent biofilm inhibition
same,biofilm formation of Enterococcus facieum,Enterococcus facieum,failed to reduce biofilm formation
same,inhibition of biofilm formation in arabinose stimulated (bifA induced) cultures,[5],synergistic inhibitory effect on biofilm formation
